Experimental data taken from ChEMBL document CHEMBL1131434, “Identification of an opioid kappa receptor subtype-selective N-substituent for (+)-(3R,4R)-dimethyl-4-(3-hydroxyphenyl)piperidine” (J Med Chem, 1998).

Key:
Mu-type opioid receptor [1] = biological target: T1, Mu-type opioid receptor (Cavia porcellus, UniProt P97266); test: Binding affinity determined on Opioid receptor mu 1 in Guinea pig brain membranes using radioligand [3H]DAMGO; type: cell membranes, Membrane
[2] = biological target: Kappa-type opioid receptor (Cavia porcellus) (UniProt P41144); test: Inhibition against Opioid receptor kappa 1 using selective ligand [3H]U-69593; parameters: concentration or dose not given beside the values; settings: concentration not given here
Chain of Kappa-type opioid receptor (Cavia porcellus) (P41144 whole entry): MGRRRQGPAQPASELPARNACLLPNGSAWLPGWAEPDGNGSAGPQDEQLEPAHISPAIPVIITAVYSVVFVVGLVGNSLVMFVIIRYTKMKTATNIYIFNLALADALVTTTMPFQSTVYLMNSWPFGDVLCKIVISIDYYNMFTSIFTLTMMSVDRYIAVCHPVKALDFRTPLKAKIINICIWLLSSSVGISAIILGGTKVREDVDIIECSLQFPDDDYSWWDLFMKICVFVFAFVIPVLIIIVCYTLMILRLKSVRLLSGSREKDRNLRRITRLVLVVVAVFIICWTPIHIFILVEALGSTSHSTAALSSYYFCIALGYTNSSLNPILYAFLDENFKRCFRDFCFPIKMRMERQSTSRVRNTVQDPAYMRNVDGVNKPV

Mu-type opioid receptor [3] = biological target: T1, Mu-type opioid receptor; test: Binding affinity determined on Opioid receptor mu 1 in Guinea pig brain membranes using radioligand [3H]DAMGO.; type: cell membranes, Membrane
Mu-type opioid receptor [4] = biological target: T1, Mu-type opioid receptor; test: Inhibition of [35S]GTP-gamma-S, binding from Opioid receptor mu 1 in Guinea pig Caudate stimulated by DAMGO; type: functional
[5] = biological target: T2, Kappa-type opioid receptor (Cavia porcellus, UniProt P41144); test: Inhibition of [35S]GTP-gamma-S, binding from Opioid receptor kappa 1 in Guinea pig Caudate stimulated by U69,593; type: functional
T2 sequence (P41144 whole entry): as above

[6] = biological target: T2, Kappa-type opioid receptor; test: Binding affinity determined on Opioid receptor kappa 1 in Guinea pig brain membranes using radioligand [3H]U-69593; type: cell membranes, Membrane

T1 sequence (P97266 whole entry): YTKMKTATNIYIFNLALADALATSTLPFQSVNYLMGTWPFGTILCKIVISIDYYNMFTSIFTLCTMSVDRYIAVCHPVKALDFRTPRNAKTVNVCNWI

SMILES | inhibition [2] | also measured
CC(C)C[C@@H](CN1CCC(C)(c2cccc(O)c2)C(C)C1)NC(=O)CCc1ccc(O)cc1 (some centres not stated) | – | Ki (Mu-type opioid receptor [1]): 398 nM
C[S+](C)[O-] | 4% | –
CC(CN1CCC(C)(c2cccc(O)c2)C(C)C1)N(C)C(=O)CCc1ccc(O)cc1 (configuration not stated) | 1% | –
CC1CN(C[C@H](Cc2ccccc2)NC(=O)CCc2ccc(O)cc2)CCC1(C)c1cccc(O)c1 (some centres not stated) | – | Ki (Mu-type opioid receptor [3]): 9.6 nM
Oc1ccc2c3c1O[C@H]1c4[nH]c5c(c4C[C@@]4(O)[C@@H](C2)N(CC2CC2)CC[C@]314)C[C@@]1(O)[C@H]2Cc3ccc(O)c4c3[C@@]1(CCN2CC1CC1)[C@H]5O4 [NORBINALTORPHIMINE] | – | Ki (Mu-type opioid receptor [4]): 16.7 nM
CC(C)C(CN1CCC(C)(c2cccc(O)c2)C(C)C1)NC(=O)CCc1ccc(F)cc1 (configuration not stated) | 26% | –
C[C@@H]1CN(C/C=C/c2ccccc2)CC[C@]1(C)c1cccc(O)c1 | – | Ki (Mu-type opioid receptor [4]): 0.039 nM; Ki [5]: 1.04 nM; Ki (Mu-type opioid receptor [1]): 0.74 nM; Ki [6]: 122 nM
CC(C)C(CN1CCC(C)(c2cccc(O)c2)C(C)C1)NC(=O)Cc1ccc(O)cc1 (configuration not stated) | 6% | –
CCC(C)[C@@H](CN1CCC(C)(c2cccc(O)c2)C(C)C1)NC(=O)CCc1ccc(O)cc1 (some centres not stated) | – | Ki (Mu-type opioid receptor [3]): 421 nM; Ki [6]: 8.84 nM
COc1ccc(CCC(=O)NC(CN2CCC(C)(c3cccc(O)c3)C(C)C2)C(C)C)cc1 (configuration not stated) | 16% | –
CC(C)C(CN1CCC(C)(c2cccc(O)c2)C(C)C1)NC(=O)/C=C/c1ccc(O)cc1 (configuration not stated) | 15% | –
COc1cc(CCC(=O)NC(CN2CCC(C)(c3cccc(O)c3)C(C)C2)C(C)C)ccc1O (configuration not stated) | 42% | –
CC1CN(C[C@@H](NC(=O)CCc2ccc(O)cc2)C2CCCCC2)CCC1(C)c1cccc(O)c1 (some centres not stated) | – | Ki (Mu-type opioid receptor [3]): 234 nM; Ki [6]: 83.1 nM
CC1CN(CCNC(=O)CCc2ccc(O)cc2)CCC1(C)c1cccc(O)c1 (configuration not stated) | 11% | –
CC1CN(CC(c2ccccc2)N(C)C(=O)CCc2ccc(O)cc2)CCC1(C)c1cccc(O)c1 (configuration not stated) | 7% | –
CC(C)[C@@H](CN1CC[C@@](C)(c2cccc(O)c2)[C@@H](C)C1)NC(=O)CCc1ccccc1 | 28% | –
CC(C)C(CN1CCC(C)(c2cccc(O)c2)C(C)C1)NC(=O)CCc1ccc(O)c(O)c1 (configuration not stated) | 31% | –
CC(C)C(CN1CCC(C)(c2cccc(O)c2)C(C)C1)NC(=O)CCc1ccccc1O (configuration not stated) | 25% | –
CC(CN1CCC(C)(c2cccc(O)c2)C(C)C1)NC(=O)CCc1ccc(O)cc1 (configuration not stated) | 20% | –
CC1CN(CCN(C)C(=O)CCc2ccc(O)cc2)CCC1(C)c1cccc(O)c1 (configuration not stated) | 0% | –
CC(C)C(CN1CCC(C)(c2cccc(O)c2)C(C)C1)NC(=O)CCc1cccc(O)c1 (configuration not stated) | 20% | –
CC(C)[C@@H](CN1CC[C@@](C)(c2cccc(O)c2)[C@@H](C)C1)NC(=O)CCc1ccc(O)cc1 | 71% | Ki (Mu-type opioid receptor [4]): 7.25 nM; Ki [5]: 4.7 nM; Ki (Mu-type opioid receptor [1]): 393 nM; Ki [6]: 6.91 nM
CC(C)[C@H](CN1CC[C@@](C)(c2cccc(O)c2)[C@@H](C)C1)NC(=O)CCc1ccc(O)cc1 | 11% | –
